Measured values taken from PubChem BioAssay (NCI).
“And” between values parts separate entries of the source, which are not always exact repeats. Equal entries are not always repeated.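 96-well plates; 48 h exposure; 5 concentrations. Endpoints by linear interpolation between flanking doses. Not reached: highest tested concentration assigned. GI50 is the concentration that inhibits growth by half. TGI denotes the concentration required for complete inhibition of growth.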

How the values were obtained:
Assay in all cases: inhibition of tumour cell growth, NCI panel, 48 h
[1] = tested on: SF-295 CNS
[2] = tested on: SN12C renal
[3] = tested on: SW-620 colon
[4] = tested on: UACC-62 melanoma
[5] = tested on: SNB-19 CNS
[6] = tested on: MOLT-4 leukemia
[7] = tested on: IGROV1 ovarian
[8] = tested on: OVCAR-5 ovarian
[9] = tested on: MDA-MB-231 breast
[10] = tested on: NCI/ADR-RES ovarian

`Cn1cc(C(=O)C[n+]2ccccc2)c2ccccc21` was tested, and the TGI [1] was over 100 µM, the TGI [2] was over 100 µM and the TGI [3] was over 100 µM. For the same compound, the TGI [4] was over 100 µM, the TGI [5] was over 100 µM and the TGI [6] was over 100 µM. For the same compound, the TGI [7] was over 100 µM.

`CCN(CC)c1ccc(N=Nc2ccc(-c3nc4ccc[n+](C)c4o3)cc2)cc1` showed a TGI [1] of 27.9 µM, a TGI [2] of 45.5 µM and a TGI [3] of 16.2 µM. It also gave a TGI [8] of 16.3 µM, a TGI [4] of 22.6 µM and a TGI [5] of 26.1 µM. For the same compound, the TGI [6] was 16.2 µM and the TGI [7] was 30.8 µM.

In the case of `COc1ccccc1NC(=O)CC(=O)N/N=C/c1ccc(N(CCC#N)S(=O)(=O)c2ccccc2)cc1`, the TGI [1] is reported as over 100 µM, the TGI [3] is reported as over 100 µM and the TGI [8] is reported as over 100 µM. The TGI [4] was over 100 µM, the TGI [5] was over 100 µM and the TGI [6] was over 100 µM. It also gave a TGI [7] of over 100 µM.

`CC(C)(c1ccccc1)c1ccc(OC#N)cc1` was tested, and the TGI [1] was over 100 µM, the TGI [2] was over 100 µM and the TGI [3] was over 100 µM. The TGI [8] was over 100 µM, the TGI [4] was over 100 µM and the TGI [5] was over 100 µM. The TGI [6] was over 100 µM and the TGI [7] was over 100 µM.

`COc1ccc(OCC(=O)O)c(C(=O)CCC(=O)O)c1` showed a TGI [1] of over 100 µM, a TGI [2] of over 100 µM and a TGI [3] of over 100 µM. The TGI [8] was over 100 µM, the TGI [4] was over 10 µM and the TGI [5] was over 100 µM. It also gave a TGI [6] of over 100 µM and a TGI [7] of over 100 µM.

Work on `O=C(/C=C/c1ccc(C(F)(F)F)cc1)c1ccc(Nc2nc(NCCO)nc(Nc3ccc(Cl)cc3)n2)cc1` yielded a GI50 [1] of 3.98 µM, a TGI [1] of 14.7 µM and a GI50 [2] of 5.53 µM. For the same compound, the TGI [2] was 17.5 µM, the GI50 [3] was 2.17 µM and the TGI [3] was 5.04 µM. The GI50 [9] was 4.21 µM, the TGI [9] was 16.1 µM and the GI50 [8] was 5.93 µM. For the same compound, the TGI [8] was 18.8 µM, the GI50 [4] was 6.32 µM and the TGI [4] was 19.5 µM. It also gave a GI50 [10] of 5.58 µM, a TGI [10] of 26 µM and a GI50 [6] of 3.56 µM. For the same compound, the TGI [6] was 12.6 µM, the GI50 [7] was 4.92 µM and the TGI [7] was 16.2 µM.

Work on `O=C(NC12CC3CC(CC(C3)C1)C2)C(=O)c1c[nH]c2ccccc12` yielded a TGI [1] of 22.4 µM, a TGI [2] of 30.4 µM and a TGI [8] of 32.1 µM. For the same compound, the TGI [4] was 26.5 µM, the TGI [5] was 32.3 µM and the TGI [6] was 43.2 µM. It also gave a TGI [7] of 29.3 µM.

`N#CC1(C#N)C(C#N)(C#N)C12CCCCCC2` was tested, and the TGI [1] was over 57.2 µM, the TGI [2] was 33.7 µM and the TGI [3] was 5.29 µM. For the same compound, the TGI [8] was 30 µM, the TGI [4] was 18.4 µM and the TGI [5] was over 87.8 µM. For the same compound, the TGI [6] was 19.5 µM and the TGI [7] was over 68.8 µM.

`COc1cccc(/C=N/C(/N=C/c2cccc(OC)c2O)c2cccc(OC)c2O)c1O` was tested, and the TGI [1] was 80 µM, the TGI [2] was 77.6 µM and the TGI [3] was over 100 µM. The TGI [9] was over 100 µM, the TGI [8] was 73.8 µM and the TGI [4] was 59.8 µM. The TGI [5] was over 100 µM, the TGI [10] was 85.2 µM and the TGI [7] was 62.8 µM.

`COC(C)(C)C/C=C/C(C)=C/C=C/C(C)=C\C=C\C(C)=C\C=C\C=C(C)\C=C\C=C(C)\C=C\C=C(C)\C=C\CC(C)(C)OC` showed a GI50 [2] of over 150 µg/mL, a TGI [2] of over 150 µg/mL and a GI50 [3] of over 150 µg/mL. It also gave a TGI [3] of over 150 µg/mL, a GI50 [8] of over 150 µg/mL and a TGI [8] of over 150 µg/mL. The GI50 [4] was over 150 µg/mL, the TGI [4] was over 150 µg/mL and the GI50 [5] was over 150 µg/mL. For the same compound, the TGI [5] was over 150 µg/mL, the GI50 [6] was over 150 µg/mL and the TGI [6] was over 150 µg/mL. For the same compound, the GI50 [7] was over 150 µg/mL and the TGI [7] was over 150 µg/mL.

In the case of `C=C1C(=O)O[C@H]2[C@H]1CC/C(Cn1cc(-c3ccccc3C(F)(F)F)nn1)=C\CC[C@@]1(C)O[C@@H]21`, the GI50 [1] is reported as 10.3 µM, the TGI [1] is reported as 22.6 µM and the GI50 [2] is reported as 2.48 µM. It also gave a TGI [2] of 7.46 µM, a GI50 [3] of 1.24 µM and a TGI [3] of 3.33 µM. For the same compound, the GI50 [9] was 1.64 µM, the TGI [9] was 3.75 µM and the GI50 [8] was 2.46 µM. For the same compound, the TGI [8] was 8.95 µM, the GI50 [5] was 10.8 µM and the TGI [5] was 25.8 µM. The GI50 [10] was 2.99 µM, the TGI [10] was 15.1 µM and the GI50 [6] was 3.03 µM. The TGI [6] was 10.9 µM, the GI50 [7] was 1.81 µM and the TGI [7] was 3.86 µM.

With `COc1cc2c(cc1OC)/C(=C\c1ccccc1N)C(=O)OC2` the TGI [1] was 29.3 µM, the TGI [2] was 31.4 µM and the TGI [3] was 13.9 µM. The TGI [8] was 35.4 µM, the TGI [4] was 32.2 µM and the TGI [5] was 32.5 µM. It also gave a TGI [6] of 8.24 µM and a TGI [7] of 36.7 µM.

`COc1cccc(NC(=O)/C(Cc2nc3ccccc3nc2C)=N/NC(=O)C[n+]2ccccc2)c1` was tested, and the TGI [1] was over 100 µM, the TGI [2] was over 100 µM and the TGI [3] was 25.6 µM. For the same compound, the TGI [8] was over 100 µM, the TGI [4] was over 100 µM and the TGI [5] was over 100 µM. It also gave a TGI [6] of over 100 µM and a TGI [7] of over 100 µM.

Compound `COC(=O)/C=C/c1cc2c(cc1-c1c(C(=O)O)cc(OC)c(OC)c1OC)OCO2` has a TGI [1] of over 10 µM, a TGI [2] of over 10 µM and a TGI [3] of over 10 µM. The TGI [9] was over 10 µM, the TGI [4] was over 10 µM and the TGI [5] was over 10 µM. The TGI [10] was over 10 µM, the TGI [6] was over 10 µM and the TGI [7] was over 10 µM.

In the case of `COC(=O)CC[C@H](Cc1ccccc1)NC(=O)c1csc([C@@H](C[C@H](C(C)C)N(C)C(=O)[C@@H](NC(=O)[C@H]2CCCCN2C)C(C)C)OC(C)=O)n1`, the GI50 [1] is reported as under 0.0025 µM, the TGI [1] is reported as over 25 µM and the GI50 [2] is reported as under 0.0025 µM. It also gave a TGI [2] of over 25 µM, a GI50 [3] of under 0.0025 µM and a TGI [3] of over 25 µM. The GI50 [9] was 0.0057 µM, the TGI [9] was over 25 µM and the GI50 [8] was 0.00816 µM. For the same compound, the TGI [8] was over 25 µM, the GI50 [4] was under 0.0025 µM and the TGI [4] was over 25 µM. For the same compound, the GI50 [10] was 0.0714 µM, the TGI [10] was over 25 µM and the GI50 [6] was under 0.0025 µM. For the same compound, the TGI [6] was 10.5 µM, the GI50 [7] was 0.00331 µM and the TGI [7] was over 25 µM.

`CC(C)OP(=O)(NC(=S)c1ccccc1)OC(C)C` was tested, and the TGI [1] was over 100 µM, the TGI [2] was over 100 µM and the TGI [3] was over 100 µM. It also gave a TGI [8] of over 100 µM, a TGI [4] of over 100 µM and a TGI [5] of over 100 µM. It also gave a TGI [6] of over 100 µM and a TGI [7] of over 100 µM.

In the case of `N#CC1CCCCCCCCCCC(=O)N(CCCl)C1=O` (stereo not given), the TGI [1] is reported as over 100 µM, the TGI [2] is reported as over 100 µM and the TGI [3] is reported as over 100 µM. The TGI [8] was over 100 µM, the TGI [4] was over 100 µM and the TGI [5] was over 100 µM. The TGI [6] was over 100 µM and the TGI [7] was over 100 µM.

For `CN(C)CC/[N+]([O-])=C(/c1ccccc1)C12CC3CC(CC(C3)C1)C2`, the TGI [1] was 27.5 µM, the TGI [2] was 31.9 µM and the TGI [8] was 32 µM. The TGI [4] was 27.8 µM, the TGI [5] was 37.5 µM and the TGI [6] was 34.1 µM. For the same compound, the TGI [7] was 33.9 µM.

In the case of `S=P(N1CC1)(N1CC1)N1CC1`, the GI50 [1] is reported as 6.78 µM, the GI50 [9] is reported as 529 µM and the TGI [9] is reported as 678 µM and 777 µM. For the same compound, the GI50 [5] was 18.5 µM and 180 µM, the TGI [5] was > 78.4 µM and 719 µM and 787 µM and the GI50 [10] was 53.8 µM. For the same compound, the TGI [10] was 511 µM and 225 µM, the GI50 [6] was 1.27 µM and the TGI [6] was 53.4 µM and 334 µM and 54.9 µM. For the same compound, the GI50 [7] was 38.8 µM and 280 µM and the TGI [7] was 77.2 µM and 361 µM and 507 µM.

`C=CCC1C(=O)CC2(C)CC(=O)C(CC=C)C12C` (stereo not given) gave a TGI [1] of over 100 µM, a TGI [2] of over 100 µM and a TGI [3] of over 100 µM. It also gave a TGI [8] of over 100 µM, a TGI [4] of over 100 µM and a TGI [5] of over 100 µM. For the same compound, the TGI [6] was over 100 µM and the TGI [7] was over 100 µM.

`Cc1cc(C)cc(NC(N)=S)c1` showed a TGI [1] of over 100 µM, a TGI [2] of over 100 µM and a TGI [3] of 18 µM. The TGI [8] was over 100 µM, the TGI [4] was over 100 µM and the TGI [5] was over 100 µM. It also gave a TGI [6] of over 100 µM and a TGI [7] of over 100 µM.
